Assay results reported in patent US7494988B2, “Inhibitors of serine proteases, particularly hepatitis C virus NS3 protease” (Vertex Pharmaceuticals Incorporated, priority 2000, dated 2009).

Target: HCV NS3 serine protease (Hepatitis C virus genotype 1a, UniProt P27958)
Assay: Inhibition of HCV NS3 serine protease, spectrophotometric assay (5A-pNA cleavage)
Assay type: biochemical
Settings: EDVVAbuC-p-nitroanilide (5A-pNA) substrate, 30° C., pNA release at 405 nm
Experimental: Insofar as compounds of formula (I) are able to inhibit NS3 serine protease, they are of evident clinical utility for the treatment of viral diseases, including HCV. The compounds of this invention are tested for their ability to inhibit HCV in the following spectrophotometric assay.
The spectrophotometric assays were run in a 96-well microtiter plate at 30° C., using a SpectraMax 250 reader (Molecular Devices, Sunnyvale, Calif.) with kinetic capability. Cleavage of EDVVAbuC-p-nitroanilide (5A-pNA) substrate was performed with or without NS4A in the same buffer used for HPLC assays at 30° C., and pNA release was monitored at 405 nm. […]
Kinetic constants for the rapid equilibrium ordered bisubstrate reaction were determined from rate vs. [4A], [EDVV AbuC-pNA] data by non-linear least squares fitting to equation 1 [J. F. Morrison, Biochim. […] Kii and Kis values for peptidyl inhibitors were determined from rate vs. [inhibitor], [substrate] data and fitting to the equation for mixed inhibition: rate=Vmax[S]/{Km(1+[I]/Kis)+[S](1+[I]/Kii)} The commercial program KinetAsyst (StateCollege, Pa.) was used for both procedures. Ki values were calculated from rate vs. [inhibitor] plots by a nonlinear least squares fit of the data to the equation of Morrison for tight binding competitive inhibition [J. F. Morrison, Biochim. […]

Chain of HCV NS3 serine protease (P27958 1027-1657): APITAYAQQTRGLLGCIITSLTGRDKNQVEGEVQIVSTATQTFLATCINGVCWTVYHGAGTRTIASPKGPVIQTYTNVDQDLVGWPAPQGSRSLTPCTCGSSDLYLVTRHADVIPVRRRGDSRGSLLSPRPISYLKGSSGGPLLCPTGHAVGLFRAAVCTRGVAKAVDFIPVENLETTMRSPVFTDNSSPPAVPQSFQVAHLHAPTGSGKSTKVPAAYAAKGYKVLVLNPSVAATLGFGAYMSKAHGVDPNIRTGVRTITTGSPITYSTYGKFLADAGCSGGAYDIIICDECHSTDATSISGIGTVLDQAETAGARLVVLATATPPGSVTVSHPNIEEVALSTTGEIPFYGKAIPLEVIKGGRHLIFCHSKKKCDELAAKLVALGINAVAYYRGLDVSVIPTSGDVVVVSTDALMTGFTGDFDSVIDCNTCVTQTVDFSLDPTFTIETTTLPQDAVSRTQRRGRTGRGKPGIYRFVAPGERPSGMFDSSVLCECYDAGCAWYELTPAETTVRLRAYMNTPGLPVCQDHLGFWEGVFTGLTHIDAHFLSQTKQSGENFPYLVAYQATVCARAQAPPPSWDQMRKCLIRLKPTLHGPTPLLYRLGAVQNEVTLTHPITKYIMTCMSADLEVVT

| Compound | Ki [µM] |
| --- | --- |
| CCC[C@H](NC(=O)C1C[C@@H](OC(=O)N2CCc3ccccc3C2)CN1C(=O)[C@@H](NC(=O)[C@@H](NC(=O)c1cnccn1)C(C)C)C(C)C)C(=O)C(=O)N1CCC1 (some centres unmarked) [Compound 7] | < 1 |
| CCC[C@H](NC(=O)C1C[C@@H](OC(=O)N2CCc3ccccc3C2)CN1C(=O)[C@@H](NC(=O)[C@@H](NC(=O)c1cnccn1)C(C)C)C(C)C)C(=O)C(=O)N1CC(Oc2ccccc2)C1 (some centres unmarked) [Compound 9] | < 1 |
